Data: ChEMBL document CHEMBL1147473, “Synthesis of a bioprobe for elucidation of target molecule of spongean anti-malarial peroxides” (Bioorg Med Chem Lett, 2004)

Tested on: Plasmodium falciparum
Assay: Inhibitory concentration against Plasmodium falciparum
Type: functional, organism-based

SMILES | IC50
COC(=O)CC1CCC(CCCCCOC(=O)NCCCC[C@@H]2CCC3NC(=O)NC32)(OC)OO1 (some centres not stated) | 0.91 µM
COC(=O)CC1CCC(CCCCCOC(=O)NCCCCNC(=O)OCCOCCOC(=O)NCCCC[C@@H]2CCC3NC(=O)NC32)(OC)OO1 (some centres not stated) | 0.57 µM
